In ChEMBL document CHEMBL1151858, “4-Piperidines and 3-pyrrolidines as dual serotonin and noradrenaline reuptake inhibitors: design, synthesis and structure-activity relationships” (Bioorg Med Chem Lett, 2009):

How the values were obtained:
in vitro = details: human, liver microsomes
[1] = Octanol-water distribution coefficient, log D at pH 7.4; assay type: physicochemical
[2] = Elimination half life in rat at 5 mg/kg, iv administered as single dose; assay type: ADME, organism-based; set-up: dose 5 mg/kg, route intravenous; details: in vivo, read-out: beta t1/2 (converted)
[3] = Plasma clearance in rat at 5 mg/kg, iv administered as single dose; assay type: ADME, organism-based; set-up: dose 5 mg/kg, route intravenous
[4] = Volume of distribution in rat at 5 mg/kg, iv administered as single dose; assay type: ADME, organism-based; set-up: dose 5 mg/kg, route intravenous; details: in vivo

Cc1ccc(C(Oc2cccc(Cl)c2Cl)C2CCNCC2)cn1 (centres undefined)
half-life (in vitro): > 2 h

Clc1cccc(OC(c2ccccn2)[C@H]2CCNC2)c1Cl (some centres undefined)
logD [1]: 0.9
half-life (in vitro): > 2 h

Clc1cccc(OC(c2cccnc2)C2CCNCC2)c1Cl (single isomer, unassigned; enantiomer 1)
logD [1]: 1.2
half-life [2]: 2 h
clearance [3]: 180 mL/min/kg
Vd [4]: 33 L/kg
half-life (in vitro): > 2 h

CNCC[C@H](Oc1cccc2ccccc12)c1cccs1 [DULOXETINE]
half-life (in vitro): > 2 h
